From ChEMBL document CHEMBL1857833, “Screening and optimization of specific chemical series against human African Trypanosomiasis (HAT)”
Values after ≈ are worked out from the molar mass of the structure shown. Values joined by “and” are separate entries in the source; they are usually repeats but may differ in a detail not shown here. Equal entries are not always repeated.

Key:
Trypanosoma brucei [1] = test: DNDI: Mean survival time in days (MSD) of mice after intraperitoneal injection of Human African Trypanosomiasis (HAT), EATRO 110, in vivo at 20 mg/kg/day for 4 days.; type: functional, Mus musculus
Trypanosoma brucei [2] = test: DNDI: Inhibition of Human African Trypanosomiasis, SBRI 427, in vitro; type: functional, organism-based
[3] = DNDI: Cytotoxicity against L929 mouse fibroblasts, 72 hour.; type: toxicity, cell-based; details: mouse, L929 mouse fibroblasts
in vitro = details: mouse, liver microsomes, t (1 / 2)
Description: DNDI: half life in mouse liver microsomes at a concentration of 1uM

[4] = DNDI: Solubility in phosphate buffered saline at pH7.4 measured by nephelometry at room temperature (NEPH-RT); type: physicochemical; details: pH 7.4
[5] = DNDI: Lipophilicity measured in Chromatographic hydrophobicity index (CHI) assay, pH 7.4; type: physicochemical; details: buffer
[6] = mouse, microsomes, 1 µM
Description: DNDI: in vitro intrinsic clearance in mouse liver microsomes at a concentration of 1uM

Trypanosoma cruzi = test: DNDI: Inhibition of Chagas Disease parasite Trypanosoma cruzi (Tulahuen LacZ, Clone C4), in vitro.; type: functional, organism-based
Plasmodium falciparum = test: DNDI: Inhibition of the malaria parasite Plasmodium falciparum, in vitro; type: functional, organism-based; details: K1
[7] = tested on: Trypanosoma brucei rhodesiense; test: DNDI: Inhibition of Human African Trypanosomiasis (HAT), STIB 900, in vitro; type: functional, organism-based
[8] = DNDI: Cytotoxicity against L-6 rat myoblasts from skeletal muscle cells; type: toxicity, cell-based, L6; details: L-6 rat skeletal muscle myoblasts
Leishmania donovani = test: DNDI: Inhibition of formation of Leishmania donovani (strain MHOM/ET/67/L82) axenic amastigotes, in vitro.; type: functional, organism-based
[9] = DNDI: Cytotoxicity against L929 mouse fibroblasts, CYTO-SP, 24 hour; type: toxicity, cell-based; details: mouse, L929 mouse fibroblasts
Trypanosoma brucei [10] = test: DNDI: Inhibition of Human African Trypanosomiasis, Cross 22, in vitro; type: functional, organism-based
[11] = Trypanosoma brucei, SBRI 427, read-out: IC50

SMILES | MSD (Trypanosoma brucei [1]) [days] | IC50 (Trypanosoma brucei [2]; [11]) [mg/L] | IC50 at 72 h [3] [mg/L] | half-life at 1 µM (in vitro) [min] | solubility kinetic [4] [µM] | chromatographic logD [5] | CLint in vitro [6] [µL/min/mg] | IC50 (Trypanosoma cruzi) [mg/L] | IC50 (Plasmodium falciparum) [mg/L] | IC50 [7] [mg/L] | IC50 [8] [mg/L] | IC50 (Leishmania donovani) [mg/L] | IC50 at 24 h [9] [mg/L] | IC50 (Trypanosoma brucei [10]) [mg/L] | IC50 (Trypanosoma brucei [2])
Cc1ccc(CNC(CCc2ccccc2)c2nc(-c3ccccc3)c(N3CCCCC3)o2)cc1 (configuration not stated) | 4 | > 5 | > 10 | – | – | – | – | – | – | – | – | – | – | – | –
CCCCCC(C)NCc1coc(-c2ccc(OC3CCCC3)cc2)n1 (configuration not stated) | 4 | 0.73 (≈ 2.05 µM) | 1.38 (≈ 3.87 µM) | 67 | 6 (≈ 2.14 µg/mL) | > 5.2 | 13 | – | – | – | – | – | – | – | –
CCCCCC(C)NCc1coc(-c2ccc(OCC(C)C)cc2)n1 (configuration not stated) | 4 | 0.5 (≈ 1.45 µM) | 1.48 (≈ 4.3 µM) | 94 | 3 (≈ 1.03 µg/mL) | > 5.2 | 9 | – | – | – | – | – | – | – | –
CC1CCC(N/C(=N\O)c2cccnc2Oc2ccccc2Cl)CC1 (configuration not stated) | – | – | > 10 | – | – | – | – | 4.72 (≈ 13.1 µM) | 4.4 (≈ 12.2 µM) | 20.9 (≈ 58.1 µM) | 50.2 (≈ 139 µM) | 6.18 (≈ 17.2 µM) | > 50 | – | –
CCc1ccc(Oc2ncccc2/C(=N\O)NC2CCCC[C@@H]2N)cc1 (some centres not stated) | 4 | > 5 | > 10 | 116 | – | – | 7 | – | – | – | – | – | – | – | –
CCc1ccc(/C(=N/O)NC2CCCCC2)cc1 | 4 | 0.98 (≈ 3.98 µM) | > 10 | 4 | 50 (≈ 12.3 µg/mL) | 4.6 | 210 | 10.8 (≈ 43.7 µM) | > 5 | 8.75 (≈ 35.5 µM) | 53.8 (≈ 218 µM) | 11.3 (≈ 45.9 µM) | > 50 | – | –
CCCCCC(C)NCc1coc(-c2ccc(OC(C)CC)cc2)n1 (configuration not stated) | 4 | 0.68 (≈ 1.97 µM) | 1.55 (≈ 4.5 µM) | 257 | 3 (≈ 1.03 µg/mL) | > 5.2 | 3 | – | – | – | – | – | – | – | –
Cc1ccc(CNC(CC(C)C)c2nc(Cc3ccccc3)c(N3CCOCC3)o2)cc1 (configuration not stated) | 4 | 1.64 (≈ 3.78 µM) | > 10 | 5 | – | – | 155 | – | – | – | – | – | – | – | –
CCc1ccc(Oc2ncccc2/C(=N\O)NC2CCCCC2)cc1 | 4 | 0.09 (≈ 0.265 µM) | > 10 | – | – | – | – | – | – | – | – | – | – | – | –
CCCCCC(C)NCc1coc(-c2ccc(C(C)(C)C)cc2)n1 (configuration not stated) | – | – | 1.36 (≈ 4.14 µM) | 51 | – | – | 17 | 2.8 (≈ 8.52 µM) | 0.694 (≈ 2.11 µM) | 0.302 (≈ 0.919 µM) | 3.25 (≈ 9.89 µM) | 6.61 (≈ 20.1 µM) | 9 (≈ 27.4 µM) | 0.49 (≈ 1.49 µM) | 0.86 mg/L and 0.42 mg/L
CCCCCC(C)NCc1coc(-c2ccc(Br)cc2)n1 (configuration not stated) | – | 0.9 (≈ 2.56 µM) | 4.47 (≈ 12.7 µM) | – | – | – | – | 8.2 (≈ 23.3 µM) | 2.41 (≈ 6.86 µM) | 0.532 (≈ 1.51 µM) | 12.7 (≈ 36.1 µM) | 20.4 (≈ 58 µM) | > 50 | 2.01 (≈ 5.72 µM) | 1.34 mg/L and 1.55 mg/L
O/N=C(\Nc1cccc(F)c1)c1cccnc1Oc1c(F)cccc1F | 4 | > 5 | > 10 | – | – | – | – | – | – | – | – | – | – | – | –
CCc1cccc(N/C(=N/O)c2ccc(OC)cc2)c1 | 4 | 0.76 (≈ 2.81 µM) | > 10 | 2 | > 200 | 3.76 | 470 | 17 (≈ 62.9 µM) | 3.87 (≈ 14.3 µM) | 34.3 (≈ 127 µM) | 44.7 (≈ 165 µM) | 26.6 (≈ 98.3 µM) | > 50 | – | –
O/N=C(\NCC1CCCCC1)c1ccccc1-c1ccccc1 | – | 2.15 (≈ 6.97 µM) | 2.72 (≈ 8.82 µM) | – | – | – | – | 3.63 (≈ 11.8 µM) | 2.7 (≈ 8.75 µM) | 18.7 (≈ 60.6 µM) | 14.8 (≈ 47.9 µM) | 4.75 (≈ 15.4 µM) | 16.1 (≈ 52.1 µM) | – | –
